PMC6272192, “Synthesis and Biological Evaluation of N-Alkyl-3-(alkylamino)-pyrazine-2-carboxamides” (Molecules, 2015)
Values after ≈ are worked out from the molar mass of the structure shown. Read-outs that look alike come from different tables or passages of the source.

Assays:
[1] = test system: photosystem 2 photosynthetic electron transport (PET) in spinach chloroplasts; design: method as in doi:10.3139/113.110079; conditions: literature surfactants; read-out: IC50 related to PET inhibition; cited from earlier work
M. tuberculosis H37Rv [2] = conditions: previously prepared 3-alkylaminopyrazine-2-carboxamides; cited from earlier work
[3] = determination of lipophilicity by HPLC (log k); conditions: HPLC capacity factor, C18 column, MeOH 70% / H2O 30%
Description: Instrumentation: Agilent Technologies 1200 SL liquid chromatograph with Diode-array Detector SL G1315C (Agilent Technologies Inc., Colorado Springs, CO, USA); pre-column ZORBAX XDB-C18 5 μm, 4 × 4 mm, Part No. 7995118-504 (Agilent Technologies Inc.) and column ZORBAX Eclipse XDB-C18 5 μm, 4.6 × 250 mm, Part No. 7995118-585 (Agilent Technologies Inc.). The separation process was controlled by Agilent ChemStation, version B.04.02 extended by spectral module (Agilent Technologies Inc.). Mobile phase consisted of MeOH (HPLC grade, 70%) and H2O (HPLC-Milli-Q Grade, 30%). Conditions: Flow rate 1.0 mL/min, sample injection volume 20 μL, column temperature 30 °C, detection wavelength 210 nm, monitor wavelength 270 nm. Retention times (tR) were measured in minutes. The dead time of the system (tD) was determined as the retention time of KI methanol solution. Capacity factors k for individual compounds were calculated according to the formula k = (tR − tD)/tD. Log k, calculated from the capacity factor k, is used as the lipophilicity index converted to log scale.

[4] = test system: photosystem 2 photosynthetic electron transport (PET) in spinach chloroplasts; assay: inhibition of photosynthetic electron transport (PET) in spinach chloroplasts (Hill reaction, DCPIP); assay type: biochemical, Spinacia oleracea L.; conditions: for PET-inhibiting activity (in words) / IC50: spinach chloroplasts
Procedure: Chloroplasts were prepared from spinach (Spinacia oleracea L.) according to Masarovicova and Kralova. The inhibition of photosynthetic electron transport (PET) in spinach chloroplasts was determined spectrophotometrically (Genesys 6, Thermo Electron Scientific Instruments, Madison, WI, USA), using an artificial electron acceptor 2,6-dichlorophenol-indophenol (DCPIP) according to Kralova et al., and the rate of photosynthetic electron transport (PET) was monitored as a photoreduction of DCPIP. The measurements were carried out in phosphate buffer (0.02 mol/L, pH 7.2) containing sucrose (0.4 mol/L), MgCl2 (0.005 mol/L) and NaCl (0.015 mol/L). The chlorophyll content was 30 mg/L in these experiments and the samples were irradiated (~100 W/m^2 with 10 cm distance) with a halogen lamp (250 W) using a 4 cm water filter to prevent warming of the samples (suspension temperature 22 °C). The studied compounds were dissolved in DMSO due to their limited water solubility. […] The inhibitory efficiency of the studied compounds was expressed by IC50 values, i.e., by molar concentration of the compounds causing 50% PET inhibition relative to the untreated control.

M. tuberculosis H37Rv [5] = assay: in vitro antimycobacterial activity, microdilution panel method; assay type: cell-based, Mycobacterium tuberculosis; conditions: for MIC: Mycobacterium tuberculosis
[6] = test system: Trichophyton mentagrophytes; assay: in vitro antifungal activity, microdilution broth method; assay type: cell-based; conditions: for MIC: Trichophyton mentagrophytes
Procedure: Antifungal evaluation was performed using microdilution broth method against 8 fungal strains (Candida albicans ATCC 44859, C. tropicalis 156, C. krusei E28, C. glabrata 20/I, Trichosporon asahii 1188, Aspergillus fumigates 231, Absidia corymbifera 272 and Trichophyton mentagrophytes 445). Compounds were dissolved in DMSO and diluted in a twofold manner with RPMI 1640 medium with glutamine buffered to pH 7.0 (3-morpholinopropane-1-sulfonic acid). […] Static incubation was performed in the dark and humid, at 35 °C for 24 and 48 h (respectively 72 and 120 h for Trichophyton mentagrophytes). The MIC was defined as 80% inhibition of control (50% IC for filament fungi). Drug-free controls were included. The standards were amphotericin B, voriconazole, nystatin and fluconazole.

[7] = test system: Staphylococcus epidermidis; assay: in vitro antibacterial activity, microdilution broth method; assay type: cell-based
Procedure: Microdilution broth method. Antibacterial evaluation was performed against bacterial strains from Czech Collection of Microorganisms (Brno, Czech Republic) (Staphylococcus aureus CCM 4516/08, Escherichia coli CCM 4517, Pseudomonas aeruginosa CCM 1961) or clinical isolates from Department of Clinical Microbiology, University Hospital and Faculty of Medicine in Hradec Králové, Charles University in Prague, Czech Republic (Staphylococcus aureus H 5996/08-methicilin resistant (MRSA), Staphylococcus epidermidis H 6966/08, Enterococcus sp. J 14365/08, Klebsiella pneumoniae D 11750/08, Klebsiella pneumoniae J 14368/08-ESBL positive). All strains were subcultured on Mueller-Hinton agar (MHA) (Difco/Becton Dickinson, Detroit, MI, USA) at 35 °C and maintained on the same medium at 4 °C. The compounds were dissolved in DMSO, and the antibacterial activity was determined in Mueller-Hinton liquid broth (Difco/Becton Dickinson), buffered to pH 7.0. Controls consisted of medium and DMSO alone. […] The standards were neomycin, bacitracin, penicillin G, ciprofloxacin and phenoxymethylpenicilin.

Vero cells = assay: in vitro cytotoxicity assay (MCC); assay type: cell-based, African Green Monkey; conditions: highest tested concentration 100 µmol/L
[8] = 336 h, Middlebrook 7H9, Alamar Blue after 14 days, read-out: MIC M. tuberculosis
[9] = DCPIP photoreduction, read-out: IC50 (PET-inhibiting activity)
[10] = Middlebrook 7H9, Alamar Blue after 14 days

Structure (SMILES)	log k [3]	MIC (M. tuberculosis H37Rv [5]; [8])	IC50 [4, 9]	other results
CCCCCCCCC[N+](C)(C)CCNC(=O)CCC(=O)NCC[N+](C)(C)CCCCCCCCC [3,8-diaza-4,7-dioxodecane-1,10-diylbis(nonyldimethyl)ammonium bromide]				IC50 [1]: 1740 µM
CCCCCCCNc1nccnc1C(N)=O [3-heptyamino-]				MIC (M. tuberculosis H37Rv [2]): 50 mg/L (≈ 212 µM)
CCCCCCNc1nccnc1C(N)=O [3-hexylamino-]				MIC (M. tuberculosis H37Rv [2]): 50 mg/L (≈ 225 µM)
CCCCCCCCNc1nccnc1C(N)=O [3-octylaminopyrazine-2-carboxamide]				MIC (M. tuberculosis H37Rv [2]): 50 mg/L (≈ 200 µM)
CNC(=O)c1nccnc1Cl [Compound 1, 3-Chloro-N-methylpyrazine-2-carboxamide]	−0.747	> 100 mg/L		PET-inhibiting activity (in words) [4]: inactive
CCNC(=O)c1nccnc1Cl [Compound 2, 3-Chloro-N-ethylpyrazine-2-carboxamide]	−0.591	> 100 mg/L		PET-inhibiting activity (in words) [4]: inactive
CCCNC(=O)c1nccnc1Cl [Compound 3, 3-Chloro-N-propylpyrazine-2-carboxamide]	−0.414	> 100 mg/L		PET-inhibiting activity (in words) [4]: inactive
CCCCNC(=O)c1nccnc1Cl [Compound 4, N-Butyl-3-chloropyrazine-2-carboxamide]	−0.209	> 100 mg/L	4010 µM	
CCCCCNC(=O)c1nccnc1Cl [Compound 5, 3-Chloro-N-pentylpyrazine-2-carboxamide]	0.012	> 100 mg/L	1390 µM	
CCCCCCNC(=O)c1nccnc1Cl [Compound 6, 3-Chloro-N-hexylpyrazine-2-carboxamide]	0.239	100 mg/L	1070 µM	MIC [6]: 250 µM (≈ 60.4 µg/mL)
CCCCCCCNC(=O)c1nccnc1Cl [Compound 7, 3-Chloro-N-heptylpyrazine-2-carboxamide]	0.470	100 mg/L	256 µM	MIC [6]: 125 µM (≈ 32 µg/mL)
CCCCCCCCNC(=O)c1nccnc1Cl [Compound 8, 3-Chloro-N-octylpyrazine-2-carboxamide]	0.702	50 mg/L	55 µM	MIC Trichophyton mentagrophytes [6]: 62.5 µM (≈ 16.9 µg/mL); MIC [6]: 62.5 µM (≈ 16.9 µg/mL)
CNC(=O)c1nccnc1NC [Compound 9, N-Methyl-3-(methylamino)pyrazine-2-carboxamide]	−0.279	> 100 mg/L	5650 µM	
CCNc1nccnc1C(=O)NC [Compound 10, 3-(Ethylamino)-N-methylpyrazine-2-carboxamide]	−0.052	> 100 mg/L		
CCCNc1nccnc1C(=O)NC [Compound 11, N-Methyl-3-(propylamino)pyrazine-2-carboxamide]	0.166	> 100 mg/L		
CCCCNc1nccnc1C(=O)NC [Compound 12, 3-(Butylamino)-N-methylpyrazine-2-carboxamide]	0.401	100 mg/L	523 µM	
CCCCCNc1nccnc1C(=O)NC [Compound 13, N-Methyl-3-(pentylamino)pyrazine-2-carboxamide]	0.638	50 mg/L	544 µM	MIC [6]: 250 µM (≈ 55.6 µg/mL)

Structure (SMILES)	log k [3]	MIC (M. tuberculosis H37Rv [5]; [8])	IC50 [4, 9]	other results
CCCCCCNc1nccnc1C(=O)NC [Compound 14, 3-(Hexylamino)-N-methylpyrazine-2-carboxamide]	0.876	25 mg/L	125 µM	MIC [6]: 250 µM (≈ 59.1 µg/mL); MIC M. tuberculosis (M. tuberculosis H37Rv [5]; [10]): 25 mg/L (≈ 106 µM)
CCCCCCCNc1nccnc1C(=O)NC [Compound 15, 3-(Heptylamino)-N-methylpyrazine-2-carboxamide]	1.118	25 mg/L	65 µM	MIC [6]: 125 µM (≈ 31.3 µg/mL); MIC [7]: 250 µM (≈ 62.6 µg/mL)
CCNC(=O)c1nccnc1NC [Compound 17, N-Ethyl-3-(methylamino)pyrazine-2-carboxamide]	−0.063	> 100 mg/L		PET-inhibiting activity (in words) [4]: not active
CCNC(=O)c1nccnc1NCC [Compound 18, N-Ethyl-3-(ethylamino)pyrazine-2-carboxamide]	0.163	> 100 mg/L		PET-inhibiting activity (in words) [4]: not active
CCCNc1nccnc1C(=O)NCC [Compound 19, N-Ethyl-3-(propylamino)pyrazine-2-carboxamide]	0.382	> 100 mg/L	2050 µM	IC50 (PET) fold higher than that of compound 12 ([4]; ratio to IC50 of 12): 3.9 fold; MIC [7]: 250 µM (≈ 52.1 µg/mL)
CCCCNc1nccnc1C(=O)NCC [Compound 20, 3-(Butylamino)-N-ethylpyrazine-2-carboxamide]	0.617	> 100 mg/L	1090 µM	
CCCCCNc1nccnc1C(=O)NCC [Compound 21, N-Ethyl-3-(pentylamino)pyrazine-2-carboxamide]	0.855	50 mg/L	301 µM	MIC [6]: 250 µM (≈ 59.1 µg/mL); IC50 (PET) fold higher than that of compound 14 ([4]; ratio to IC50 of 14): 2.4 fold; MIC M. tuberculosis (M. tuberculosis H37Rv [5]; [10]): 50 mg/L (≈ 212 µM)
CCCCCCNc1nccnc1C(=O)NCC [Compound 22, N-Ethyl-3-(hexylamino)pyrazine-2-carboxamide]	1.094	50 mg/L	78 µM	MIC [6]: 125 µM (≈ 31.3 µg/mL)
CCCCCCCNc1nccnc1C(=O)NCC [Compound 23, N-Ethyl-3-(heptylamino)pyrazine-2-carboxamide]	1.337	50 mg/L	48 µM	MIC [6]: 125 µM (≈ 33 µg/mL); MIC [7]: 250 µM (≈ 66.1 µg/mL)
CCCNC(=O)c1nccnc1NCCC [Compound 25, N-Propyl-3-(propylamino)pyrazine-2-carboxamide]	0.600	> 100 mg/L	1300 µM	
CCCCNC(=O)c1nccnc1NCCCC [Compound 26, N-Butyl-3-(butylamino)pyrazine-2-carboxamide]	1.077	50 mg/L	202 µM	
CCCCCCNC(=O)c1nccnc1NCCCCCC [Compound 28, N-Hexyl-3-(hexylamino)pyrazine-2-carboxamide]	2.041	> 100 mg/L	272 µM	minimum compound concentration (MCC) causing microscopically detectable alteration of normal cell morphology (Vero cells): > 4 µmol/L
CCCCCCCNC(=O)c1nccnc1NCCCCCCC [Compound 29, N-Heptyl-3-(heptylamino)pyrazine-2-carboxamide]	2.503	> 100 mg/L	1120 µM	
CCCCCCCCNC(=O)c1nccnc1NCCCCCCCC [Compound 30, N-Octyl-3-(octylamino)pyrazine-2-carboxamide]	2.981	> 100 mg/L	752 µM	minimum compound concentration (MCC) causing microscopically detectable alteration of normal cell morphology (Vero cells): 100 µmol/L
CN(C)C(=O)Nc1ccc(Cl)c(Cl)c1 [DCMU, 3-(3,4-dichlorophenyl)-1,1-dimethylurea, reference compound]			2 µM	IC50 ([4]; read-out: IC50 (PET inhibition, Hill reaction)): ~1.9 µM
NNC(=O)c1ccncc1 [INH, Isoniazid, reference compound]		0.1 to 0.39 mg/L		MIC M. tuberculosis (M. tuberculosis H37Rv [5]; [10]): 0.1 to 0.39 mg/L; MIC (M. tuberculosis H37Rv [5]; conversion of the μg/mL value, read-out: MIC M. tuberculosis in molar units): 0.7 to 2.9 µM
CN(C)CCNC(=O)C(=O)NCCN(C)C [N,N'-bis(2-dimethylaminoethyl)ethanediamide]				IC50 [1]: 4000 µM
